According to ChEMBL document CHEMBL1201862, “PubChem BioAssay data set” (2004):
Activity calls are given as the source filed them.

Assays:
[1] = inhibitors of intracellular T. cruzi replication, confirmation, NIH3T3 host cells, beta-gal luminescence (AID 2044); format: functional, cell-based;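 also: intracellular parasites grown in NIH/3T3 mouse fibroblasts as host cells; luminescent beta-galactosidase reporter signal from transgenic T. cruzi replicating inside host cells; inhibitors lower the luminescence signal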
[2] = cytotoxicity toward NIH3T3 fibroblasts, dose response, counter-screen, cell-based, ATP luminescence, mouse fibroblasts (AID 2010); format: functional;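 also: cells exposed to compound for about 90 hours before reading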
[3] = target: T1, Heat shock factor protein 1 (Mus musculus, UniProt P38532); assay: HSF1 potentiators in luciferase reporter cells, confirmation, cell-based, NIH3T3, luminescence, dose retest (AID 435004); format: functional;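 also: stress induced by proteasome inhibitor MG132 added 30 min after compound; luciferase reporter driven by HSF1 response element in NIH3T3 cells; actives raise luminescence as potentiators of the MG132 stress response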
T1 sequence (P38532 whole entry): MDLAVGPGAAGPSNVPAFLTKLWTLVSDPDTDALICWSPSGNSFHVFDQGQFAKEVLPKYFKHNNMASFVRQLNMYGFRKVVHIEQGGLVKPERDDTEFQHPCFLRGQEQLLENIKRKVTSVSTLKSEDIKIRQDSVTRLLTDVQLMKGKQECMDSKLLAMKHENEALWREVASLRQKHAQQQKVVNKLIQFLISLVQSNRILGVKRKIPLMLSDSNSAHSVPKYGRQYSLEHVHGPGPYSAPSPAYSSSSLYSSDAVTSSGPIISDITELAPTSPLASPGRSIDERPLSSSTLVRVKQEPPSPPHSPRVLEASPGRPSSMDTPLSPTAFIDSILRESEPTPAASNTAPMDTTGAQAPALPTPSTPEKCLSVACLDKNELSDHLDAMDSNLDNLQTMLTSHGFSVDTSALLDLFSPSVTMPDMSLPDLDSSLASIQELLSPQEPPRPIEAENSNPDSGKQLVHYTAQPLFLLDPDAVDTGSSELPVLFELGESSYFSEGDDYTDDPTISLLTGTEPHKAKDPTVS

[4] = target: T2, Replicative DNA helicase DnaB (Mycobacterium tuberculosis, UniProt P9WMR3); assay: DnaB intein splicing inhibitors, dose response, biochemical, cell-free fluorescence (AID 449749); format: functional
T2 sequence (P9WMR3 whole entry): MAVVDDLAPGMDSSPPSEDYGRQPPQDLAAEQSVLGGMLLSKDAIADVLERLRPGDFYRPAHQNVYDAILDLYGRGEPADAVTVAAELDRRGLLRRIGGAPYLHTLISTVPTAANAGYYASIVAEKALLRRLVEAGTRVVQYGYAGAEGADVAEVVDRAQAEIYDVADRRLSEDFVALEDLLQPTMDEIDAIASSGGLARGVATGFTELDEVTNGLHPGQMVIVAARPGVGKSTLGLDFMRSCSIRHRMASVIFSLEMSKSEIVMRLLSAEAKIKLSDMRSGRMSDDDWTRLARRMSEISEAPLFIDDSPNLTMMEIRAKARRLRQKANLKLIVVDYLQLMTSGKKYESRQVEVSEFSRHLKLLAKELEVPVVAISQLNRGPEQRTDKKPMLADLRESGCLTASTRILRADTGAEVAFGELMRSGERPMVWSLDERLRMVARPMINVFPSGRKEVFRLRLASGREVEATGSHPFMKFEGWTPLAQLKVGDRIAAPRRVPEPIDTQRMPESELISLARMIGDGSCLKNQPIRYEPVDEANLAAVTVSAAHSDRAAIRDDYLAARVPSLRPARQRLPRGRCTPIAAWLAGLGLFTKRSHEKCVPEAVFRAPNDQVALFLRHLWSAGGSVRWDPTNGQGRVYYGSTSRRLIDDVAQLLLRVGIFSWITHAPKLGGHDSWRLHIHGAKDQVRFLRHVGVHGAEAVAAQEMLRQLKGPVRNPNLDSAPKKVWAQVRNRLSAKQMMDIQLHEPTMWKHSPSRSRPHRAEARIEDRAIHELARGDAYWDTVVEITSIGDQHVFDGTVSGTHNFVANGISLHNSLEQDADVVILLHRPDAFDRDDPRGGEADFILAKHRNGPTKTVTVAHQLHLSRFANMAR

Protein RecA = target: T3, Protein RecA (Mycobacterium tuberculosis, UniProt P9WHJ3); assay: Fluorescence Cell-Free Homogeneous Dose Retest to Identify Inhibitors of RecA-Intein Splicing Activity. [Related pubchem assays (depositor defined):AID2097, AID2223, AID489010, AID492950]; format: functional
T3 sequence (P9WHJ3 whole entry): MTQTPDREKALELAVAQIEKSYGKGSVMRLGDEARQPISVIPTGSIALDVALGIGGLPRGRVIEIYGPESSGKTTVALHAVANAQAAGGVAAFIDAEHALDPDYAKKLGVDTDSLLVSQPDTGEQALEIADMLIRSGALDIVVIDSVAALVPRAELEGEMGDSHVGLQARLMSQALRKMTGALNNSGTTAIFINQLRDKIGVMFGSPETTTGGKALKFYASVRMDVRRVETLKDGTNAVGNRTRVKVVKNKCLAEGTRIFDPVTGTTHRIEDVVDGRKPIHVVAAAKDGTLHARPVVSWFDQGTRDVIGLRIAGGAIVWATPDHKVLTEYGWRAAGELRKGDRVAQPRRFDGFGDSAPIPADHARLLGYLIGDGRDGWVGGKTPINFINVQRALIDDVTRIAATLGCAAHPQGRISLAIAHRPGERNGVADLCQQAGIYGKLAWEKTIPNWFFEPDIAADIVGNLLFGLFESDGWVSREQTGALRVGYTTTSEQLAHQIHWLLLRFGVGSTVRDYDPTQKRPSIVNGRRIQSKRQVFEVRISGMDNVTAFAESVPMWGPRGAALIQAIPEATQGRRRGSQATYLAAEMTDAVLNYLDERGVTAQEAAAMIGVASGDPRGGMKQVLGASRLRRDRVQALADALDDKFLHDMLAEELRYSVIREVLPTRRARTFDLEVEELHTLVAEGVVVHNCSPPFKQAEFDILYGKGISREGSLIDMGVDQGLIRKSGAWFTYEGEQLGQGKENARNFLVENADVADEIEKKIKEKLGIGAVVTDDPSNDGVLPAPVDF

Melanocortin receptor 4 [5] = target: T4, Melanocortin receptor 4 (Homo sapiens, UniProt P32245); assay: MC4R antagonist potency on cAMP, dose response, cell-based, TR-FRET, biased antagonists (AID 602298); format: functional;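 also: antagonist potency against agonist-stimulated cAMP production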
T4 sequence (P32245 whole entry): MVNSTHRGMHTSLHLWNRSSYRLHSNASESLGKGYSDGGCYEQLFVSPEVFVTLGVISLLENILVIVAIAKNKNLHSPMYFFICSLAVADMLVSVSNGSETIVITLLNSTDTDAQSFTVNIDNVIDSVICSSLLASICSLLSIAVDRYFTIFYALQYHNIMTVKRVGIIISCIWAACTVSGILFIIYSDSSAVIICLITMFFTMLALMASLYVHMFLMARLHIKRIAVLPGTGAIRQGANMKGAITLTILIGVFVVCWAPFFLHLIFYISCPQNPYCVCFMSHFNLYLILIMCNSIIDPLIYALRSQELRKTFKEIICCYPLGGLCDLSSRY

[6] = nonselective inhibitors of cellular cAMP signaling, dose response, counter-screen for MC4R biased antagonist project, cell-based, TR-FRET cAMP detection (AID 602305); format: functional;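 also: U2OS cells stimulated with forskolin near its EC80 as the cAMP inducer; potency is for inhibition of forskolin-stimulated cAMP signaling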
[7] = target: T5, Polyadenylate-binding protein 1 (Homo sapiens, UniProt P11940); assay: PABP1 MLLE–PAM2 interaction inhibitors, dose response, miRNA deadenylation inhibitor project, biochemical, fluorescence polarization, Cy5-PAM2 peptide, secondary (AID 602260); format: functional; conditions: read-out: IC50_Mean
T5 sequence (P11940 whole entry): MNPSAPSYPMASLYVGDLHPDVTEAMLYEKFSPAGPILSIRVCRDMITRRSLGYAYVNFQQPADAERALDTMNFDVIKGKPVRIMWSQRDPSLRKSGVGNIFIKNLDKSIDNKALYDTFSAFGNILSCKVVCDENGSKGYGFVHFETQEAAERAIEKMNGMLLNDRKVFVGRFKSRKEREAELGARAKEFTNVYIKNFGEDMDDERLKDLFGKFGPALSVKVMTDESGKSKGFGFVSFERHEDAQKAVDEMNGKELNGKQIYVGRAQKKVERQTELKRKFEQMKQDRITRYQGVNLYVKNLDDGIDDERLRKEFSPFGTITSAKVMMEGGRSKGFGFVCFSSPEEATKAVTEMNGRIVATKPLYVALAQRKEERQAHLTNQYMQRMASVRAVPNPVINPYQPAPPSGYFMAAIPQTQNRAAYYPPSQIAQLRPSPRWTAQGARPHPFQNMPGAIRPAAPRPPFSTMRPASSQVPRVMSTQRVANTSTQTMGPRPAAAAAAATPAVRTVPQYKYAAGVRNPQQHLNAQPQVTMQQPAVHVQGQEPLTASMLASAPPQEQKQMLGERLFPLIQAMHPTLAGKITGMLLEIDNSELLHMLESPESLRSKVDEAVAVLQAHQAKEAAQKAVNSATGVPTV

Melanocortin receptor 4 [8] = target: T4, Melanocortin receptor 4; format: functional, cell-based
[9] = target: T5, Polyadenylate-binding protein 1; assay: PABP1 MLLE–PAM2 binding inhibitor potency, dose response, biochemical, fluorescence polarization, FITC-PAM2 peptide (AID 602259); format: functional; conditions: read-out: IC50_Mean
[10] = inhibitors of firefly luciferase expression or activity, dose response, H4 neuroglioma cells, luminescence (AID 1990); format: functional, cell-based
[11] = luciferase reporter signal reduction – luminescence, H4-C neuroglioblastoma cells, dose response (AID 2458); format: functional, cell-based;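 also: H4 neuroglioblastoma cells stably carrying a luciferase reporter gene fusion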
BJ [12] = assay: cytotoxicity toward BJ-TERT fibroblasts, dose response, cell-based, RAS-independent, luminescence (AID 1933); format: functional; conditions: Homo sapiens
cells = format: functional, cell-based
[13] = Luminescence Cell-Based Dose Response HTS to Identify Inhibitors of 5'UTR Stem-Loop Driven Prion Protein mRNA Translation in H4 Neuroglioblastoma Cells. [Related pubchem assays: 1827 (Project Summary), 1813 (Primary HTS)]; format: functional
[14] = inhibitors of SNCA 5'UTR-driven reporter translation, confirmation, H4 neuroglioma cells, luminescence (AID 1988); format: functional, cell-based
BJ [15] = assay: cells; format: functional, cell-based; conditions: Homo sapiens
BJ [16] = assay: cytotoxicity toward BJ-TERT-LT-ST fibroblasts, dose response, cell-based, RAS-independent, luminescence (AID 1935); format: functional; conditions: Homo sapiens;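 also: BJ fibroblasts immortalized with TERT plus LT and ST oncogenes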
[17] = cytotoxicity toward DRD oncogenic fibroblasts, dose response, cell-based, non-viral oncogenic, luminescence (AID 1934); format: functional; conditions: Homo sapiens
[18] = inhibitors of SNCA 5'UTR-driven translation, confirmation, luminescence, H4 neuroglioblastoma cells, dose confirmation (AID 2454); format: functional, cell-based;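 also: H4 neuroglioblastoma cells carrying an alpha-synuclein 5'UTR luciferase reporter; potency for inhibition of the luciferase signal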
BJ [19] = assay: cytotoxicity toward Ras-transformed BJeLR fibroblasts, dose response, cell-based, alamar blue fluorescence, cherrypicked samples (AID 2631); format: functional; conditions: Homo sapiens;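 also: confirmatory dose-response assay in RAS-dependent BJ fibroblasts engineered with TERT, LT and ST, with cytotoxicity read by fluorescence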
P388/ADR = assay: cells; format: functional; conditions: Mus musculus
SN12K1 = assay: cells; format: functional; conditions: Homo sapiens
P388 = assay: cells; format: functional; conditions: Mus musculus
[20] = target: T6, Apoptotic protease-activating factor 1 (Homo sapiens, UniProt O14727); assay: SAR analysis of small molecule Activators of Apaf-1 in a Fluorescent assay.; format: functional; conditions: read-out: EC50_Mean;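 also: caspase-3 cleavage of fluorogenic Rh110 DEVD substrate downstream of apoptosome activation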
T6 sequence (O14727 whole entry): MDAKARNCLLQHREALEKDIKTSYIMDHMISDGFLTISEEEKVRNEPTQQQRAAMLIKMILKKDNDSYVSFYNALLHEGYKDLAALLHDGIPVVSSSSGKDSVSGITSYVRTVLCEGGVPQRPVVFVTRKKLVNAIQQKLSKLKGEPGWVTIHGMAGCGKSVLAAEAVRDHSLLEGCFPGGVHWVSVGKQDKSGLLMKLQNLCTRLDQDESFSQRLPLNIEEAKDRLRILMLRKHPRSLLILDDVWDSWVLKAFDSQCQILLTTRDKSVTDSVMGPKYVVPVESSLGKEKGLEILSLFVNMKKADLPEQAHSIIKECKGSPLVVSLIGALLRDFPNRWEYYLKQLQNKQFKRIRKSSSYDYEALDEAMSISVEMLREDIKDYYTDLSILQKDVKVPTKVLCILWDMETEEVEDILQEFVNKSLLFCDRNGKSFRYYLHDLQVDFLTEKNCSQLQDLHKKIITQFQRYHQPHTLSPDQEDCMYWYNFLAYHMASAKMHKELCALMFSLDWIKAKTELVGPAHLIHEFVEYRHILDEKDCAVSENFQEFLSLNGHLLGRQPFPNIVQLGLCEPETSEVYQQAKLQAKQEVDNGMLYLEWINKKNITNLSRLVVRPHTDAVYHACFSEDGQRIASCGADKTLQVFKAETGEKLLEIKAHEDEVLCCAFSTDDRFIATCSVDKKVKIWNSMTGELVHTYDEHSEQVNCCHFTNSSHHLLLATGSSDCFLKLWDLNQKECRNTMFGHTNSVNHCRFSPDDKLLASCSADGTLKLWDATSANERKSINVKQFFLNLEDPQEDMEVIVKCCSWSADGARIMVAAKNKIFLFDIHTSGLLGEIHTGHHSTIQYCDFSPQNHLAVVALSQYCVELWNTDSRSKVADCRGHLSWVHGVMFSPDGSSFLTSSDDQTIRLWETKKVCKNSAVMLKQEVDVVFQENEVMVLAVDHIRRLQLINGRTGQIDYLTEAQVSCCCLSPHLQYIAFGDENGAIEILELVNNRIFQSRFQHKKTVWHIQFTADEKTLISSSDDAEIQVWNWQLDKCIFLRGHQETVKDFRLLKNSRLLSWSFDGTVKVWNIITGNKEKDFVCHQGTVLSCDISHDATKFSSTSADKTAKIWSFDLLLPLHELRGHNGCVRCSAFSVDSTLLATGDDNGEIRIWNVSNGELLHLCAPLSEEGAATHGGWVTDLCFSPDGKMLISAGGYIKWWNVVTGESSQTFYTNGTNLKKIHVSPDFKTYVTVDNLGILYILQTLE

O=C(CCl)c1ccc2c(c1)CCN2C(=O)C1CCCCC1
EC50 [1]: 1.92 µM (active) | EC50 [2]: 6.6 µM (active) | EC50 [3]: 4.1 µM (inconclusive) | AC50 [4]: 42.4 µM (active) | EC50 (Protein RecA): 4.08 µM (active) | IC50 (Melanocortin receptor 4 [5]): > 64.6 µM (inactive) | IC50 [6]: > 64.6 µM (inactive)

CCOC(=O)CSc1nnc(-c2ccc(NS(=O)(=O)c3ccc(C)cc3)cc2)o1
IC50 (Melanocortin receptor 4 [5]): > 64.6 µM (inactive) | IC50 [6]: > 64.6 µM (inactive)

Cc1ccc(OCC(=O)NC(=S)Nc2cccc(NC(=O)c3ccccc3)c2)cc1
IC50 [7]: > 66 µM (inactive) | EC50 (Melanocortin receptor 4 [8]): > 89.2 µM (inactive) | IC50 [9]: > 66 µM (inactive)

CC(C)N(c1ccccc1)c1ccc(NC(=O)COC(=O)CCN2C(=O)c3cccc([N+](=O)[O-])c3C2=O)cc1
IC50 (Melanocortin receptor 4 [5]): > 64.6 µM (inactive) | IC50 [6]: > 64.6 µM (inactive)

COc1ccc(S(=O)(=O)N2c3cc(Cl)ccc3Oc3nc4ccccc4nc32)cc1
EC50 [10]: 3.64 µM (inconclusive) | EC50 [11]: 2.41 µM (active) | EC50 (BJ [12]): 6.91 µM (inconclusive) | EC50 (cells): > 12 µM (not active) | EC50 [13]: 7.56 µM (active) | EC50 [14]: < 0.1 µM (active) | EC50 (BJ [15]): 5.06 µM (active) | EC50 (BJ [16]): 3.81 µM (active) | EC50 [17]: 7.55 µM (inconclusive) | EC50 [18]: > 12 µM (not active) | EC50 (BJ [19]): < 0.104 µM (active)

Cc1c2cnccc2c(C)c2c1c1ccccc1n2CCCCCCNCc1ccccc1
GI50 (P388/ADR): 0.246 µM (active) | GI50 (SN12K1): 1.02 µM (active) | GI50 (P388): 0.269 µM (active)

COc1ccc(C)cc1NC(=O)CCS(=O)(=O)c1ccc2c(c1)NC(=O)CS2
EC50 [20]: > 100 µM (inactive)

CC[C@](C)(O)C(=O)O[C@H]1C(=O)O[C@@H]2C[C@H]3C(C)=C[C@H](O)[C@@H](O)[C@]3(C)[C@H]3[C@@]4(O)OC[C@]32[C@@H]1[C@@H](C)[C@H]4O
GI50 (P388/ADR): 88.5 µM (inactive) | GI50 (SN12K1): 7.19 µM (inactive) | GI50 (P388): 45.3 µM (inactive)

NC1(C(=O)O)CCCC1 [CYCLOLEUCINE]
GI50 (P388/ADR): > 625 µM (inactive) | GI50 (SN12K1): > 625 µM (inactive) | GI50 (P388): > 625 µM (inactive)
